These results are taken from ChEMBL document CHEMBL1145708, “Selective cytotoxicity of ginkgetin from Selaginella moellendorffii” (J Nat Prod, 1997).

Values after ≈ are worked out from the molar mass of the structure shown. Active and inactive are the calls of the source. The rule behind the calls is not given here.

In general, IC50 refers to the concentration that inhibits the measured activity by half. Read a low IC50 as inhibition by little substance.

Series [1] has as its system OVCAR-3. Put plainly: Growth inhibition of human OVCAR-3 cells upto 10 ug/ml after 48 hrs. It counts as functional, cell-based.
In series [2] the test system is OVCAR-3. Put plainly: Growth inhibition of human OVCAR-3 cells after 48 hrs. The series is classed as functional, cell-based.
The next series relates to HeLa. Put plainly: Growth inhibition of human HeLa cells. The series is classed as functional, cell-based.
The subject of another series is HepG2. Put plainly: Growth inhibition of human HepG2 cells. It counts as functional, cell-based.
A short description of series [3]: Growth inhibition of HEK cells. It counts as cell-based. The following applies: human, hek293.

For the molecule `COc1ccc(-c2cc(=O)c3c(O)cc(OC)c(-c4cc(-c5cc(=O)c6c(O)cc(O)cc6o5)ccc4OC)c3o2)cc1`, the outcome in the series with OVCAR-3 [1] was inactive. Turning to `COc1ccc(-c2cc(=O)c3c(O)cc(OC)c(-c4cc(-c5cc(=O)c6c(O)cc(OC)cc6o5)ccc4OC)c3o2)cc1`, the outcome in the series with OVCAR-3 [1] was inactive. On the same count and under the same terms, then `O=c1cc(-c2ccc(O)c(-c3c(O)cc(O)c4c(=O)cc(-c5ccc(O)cc5)oc34)c2)oc2cc(O)cc(O)c12`, with “inactive”. In the case of `COc1cc(O)c2c(=O)cc(-c3ccc(OC)c(-c4c(O)cc(O)c5c(=O)cc(-c6ccc(O)cc6)oc45)c3)oc2c1` [GINKGETIN], the Activity entry with OVCAR-3 [2] was “Dose-dependent effect”; in series [3] it was “Not Active”. Further, it took 1.8 µg/mL (≈ 3.18 µM) to reach half-maximal inhibition in the series with OVCAR-3 [2] (OVCAR-3, 48 h) (IC50). The result in the series with HeLa and with HepG2 was inactive. `COc1ccc(-c2cc(=O)c3c(O)cc(O)c(-c4cc(-c5cc(=O)c6c(O)cc(O)cc6o5)ccc4O)c3o2)cc1`: the outcome with OVCAR-3 [1] was inactive.
